From ChEMBL document CHEMBL5325400 (Eur J Med Chem, 2023)
The source made the active and inactive calls. The calls are words filed in the database; no cut-off is given here.

Assays:
B16-F10 = assay: Antiproliferative activity against mouse B16-F10 cells assessed as inhibition of cell growth measured after 48 hrs by MTT assay; assay type: functional, cell-based; conditions: B16-F10, 48 h
Tubulin (Sus scrofa) = Tubulin (Sus scrofa) (UniProt P02554+P02550); assay: Inhibition of porcine brain tubulin polymerization at 10 uM measured at 1 min interval for 60 mins by fluorescence based analysis
Sequence of Tubulin (Sus scrofa) (P02550 whole entry, looked up): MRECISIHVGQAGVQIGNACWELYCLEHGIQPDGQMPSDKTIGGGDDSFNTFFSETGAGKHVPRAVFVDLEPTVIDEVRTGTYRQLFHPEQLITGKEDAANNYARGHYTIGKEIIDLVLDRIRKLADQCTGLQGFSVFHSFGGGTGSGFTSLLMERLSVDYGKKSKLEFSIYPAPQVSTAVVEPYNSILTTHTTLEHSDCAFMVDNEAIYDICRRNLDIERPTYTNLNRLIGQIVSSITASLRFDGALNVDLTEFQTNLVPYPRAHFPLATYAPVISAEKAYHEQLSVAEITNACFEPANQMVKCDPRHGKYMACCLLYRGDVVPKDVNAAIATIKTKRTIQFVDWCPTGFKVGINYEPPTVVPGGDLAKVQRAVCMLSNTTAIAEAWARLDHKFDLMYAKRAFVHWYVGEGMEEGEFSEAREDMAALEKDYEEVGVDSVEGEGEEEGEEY
Sequence of Tubulin (Sus scrofa) (P02554 whole entry, looked up): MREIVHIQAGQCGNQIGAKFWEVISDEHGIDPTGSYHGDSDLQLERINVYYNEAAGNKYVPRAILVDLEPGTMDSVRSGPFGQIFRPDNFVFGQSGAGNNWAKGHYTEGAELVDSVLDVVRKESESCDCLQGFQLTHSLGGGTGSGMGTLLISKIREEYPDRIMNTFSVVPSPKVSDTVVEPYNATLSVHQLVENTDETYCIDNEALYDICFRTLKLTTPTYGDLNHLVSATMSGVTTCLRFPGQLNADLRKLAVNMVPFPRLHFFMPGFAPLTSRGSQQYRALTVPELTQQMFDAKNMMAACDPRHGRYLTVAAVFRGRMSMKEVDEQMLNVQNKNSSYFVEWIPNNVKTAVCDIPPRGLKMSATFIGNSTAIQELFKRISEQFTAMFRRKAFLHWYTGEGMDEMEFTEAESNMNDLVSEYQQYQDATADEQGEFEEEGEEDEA

A549 [1] = assay: Antitumor activity against human A549 cells xenografted in BALB/c mouse assessed as tumor weight at 10 mg/kg, ip administered every other day for 25 days; assay type: functional, organism-based; conditions: time 25.0 day
SK-OV-3 = assay: Antiproliferative activity against human SK-OV-3 cells assessed as inhibition of cell growth measured after 48 hrs by MTT assay; assay type: functional, cell-based; conditions: SK-OV-3, 48 h
A2780/Taxol = assay: Antiproliferative activity against paclitaxel resistant human A2780/Taxol cells assessed as inhibition of cell growth incubated for 48 hrs by MTT assay; assay type: functional, cell-based
HepG2 = assay: Antiproliferative activity against human HepG2 cells assessed as inhibition of cell growth measured after 48 hrs by MTT assay; assay type: functional, cell-based; conditions: HepG2, 48 h
[2] = Toxicity in BALB/c mouse xenografted with human A549 cells assessed as change in body weight at 10 mg/kg, ip administered every other day for 25 days; assay type: organism-based; conditions: in vivo, 600 h, time 25 day
A549 [3] = assay: Antitumor activity against human A549 cells xenografted in BALB/c mouse assessed as tumor growth inhibition at 10 mg/kg, ip administered every other day for 25 days; assay type: functional; conditions: A549, 600 h, time 25 day, read-out: TGI
MDA-MB-231 = assay: Antiproliferative activity against human MDA-MB-231 cells assessed as inhibition of cell growth measured after 48 hrs by MTT assay; assay type: functional, cell-based; conditions: MDA-MB-231, 48 h
A549 [4] = assay: Antitumor activity against human A549 cells xenografted in BALB/c mouse assessed as tumor volume at 10 mg/kg, ip administered every other day for 25 days; assay type: functional; conditions: time 25 day
A549 [5] = assay: Antiproliferative activity against human A549 cells assessed as inhibition of cell growth measured after 48 hrs by MTT assay; assay type: functional, cell-based; conditions: A549, 48 h
HeLa = assay: Antiproliferative activity against human HeLa cells assessed as inhibition of cell growth measured after 48 hrs by MTT assay; assay type: functional, cell-based
A2780 = assay: cells; conditions: Homo sapiens, A2780, 48 h
Description: Antiproliferative activity against human A2780 cells assessed as inhibition of cell growth incubated for 48 hrs by MTT assay

A549 [6] = assay: Antiproliferative activity against human A549 cells expressing lentivirus RNAi VTI-96660 assessed as inhibition of cell growth measured after 48 hrs by MTT assay; assay type: functional, cell-based
A549 [7] = assay: Antiproliferative activity against human A549 cells expressing lentivirus RNAi VTI-96659 assessed as inhibition of cell growth measured after 48 hrs by MTT assay; assay type: functional, cell-based
A549 [8] = assay: Antiproliferative activity against human A549 cells expressing lentivirus RNAi VTI-96658 assessed as inhibition of cell growth measured after 48 hrs by MTT assay; assay type: functional, cell-based

| Structure (SMILES) | IC50 (B16-F10) [nM] | inhibition (Tubulin (Sus scrofa)) | Activity (A549 [1]) | IC50 (SK-OV-3) [nM] | IC50 (A2780/Taxol) [µM] | IC50 (HepG2) [nM] | Activity [2] | inhibition in vivo at 10 mg/kg (A549 [3]) [%] | IC50 (MDA-MB-231) [nM] | Activity (A549 [4]) [%] | IC50 (A549 [5]) [nM] | IC50 (HeLa) [nM] | IC50 (A2780) [nM] | Activity (A549 [6]) | Activity (A549 [7]) | Activity (A549 [8]) |
| --- | --- | --- | --- | --- | --- | --- | --- | --- | --- | --- | --- | --- | --- | --- | --- | --- |
| CC(=O)O[C@H]1C(=O)[C@@]2(C)[C@H]([C@H](OC(=O)c3ccccc3)[C@]3(O)C[C@H](OC(=O)[C@H](O)[C@@H](NC(=O)c4ccccc4)c4ccccc4)C(C)=C1C3(C)C)[C@]1(OC(C)=O)CO[C@@H]1C[C@@H]2O [PACLITAXEL] | > 1000 | inactive | Active | 34.5 | 17.9 | 2.5 | Non-Toxic | 48.6 | 1.1 | 46.53 | 3.8 | – | – | – | – | – |
| COc1cc2c(c(OC)c1OC)-c1ccc(OC)c(=O)cc1[C@@H](NC(C)=O)CC2 [COLCHICINE] | 29.2 | – | – | 7.2 | 0.253 | 83.7 | – | – | 67.4 | – | – | 33.5 | 20 | – | – | – |
| O=C(Nc1cccc(Nc2cc(Nc3cccc(C(F)(F)F)c3)ncn2)c1)C1CC1 | 60.7 | Active | – | 63.2 | – | 28.5 | – | – | 45.3 | – | 84.1 | 83.4 | – | Active | Active | Active |
